Data reported in ChEMBL document CHEMBL1130469, “Prolyl endopeptidase inhibitors1: N-acyl derivatives of L-thioproline-pyrrolidine” (Bioorg Med Chem Lett, 1997).

Target: T1, Prolyl endopeptidase (Rattus norvegicus, UniProt O70196)
T1 sequence (O70196 whole entry): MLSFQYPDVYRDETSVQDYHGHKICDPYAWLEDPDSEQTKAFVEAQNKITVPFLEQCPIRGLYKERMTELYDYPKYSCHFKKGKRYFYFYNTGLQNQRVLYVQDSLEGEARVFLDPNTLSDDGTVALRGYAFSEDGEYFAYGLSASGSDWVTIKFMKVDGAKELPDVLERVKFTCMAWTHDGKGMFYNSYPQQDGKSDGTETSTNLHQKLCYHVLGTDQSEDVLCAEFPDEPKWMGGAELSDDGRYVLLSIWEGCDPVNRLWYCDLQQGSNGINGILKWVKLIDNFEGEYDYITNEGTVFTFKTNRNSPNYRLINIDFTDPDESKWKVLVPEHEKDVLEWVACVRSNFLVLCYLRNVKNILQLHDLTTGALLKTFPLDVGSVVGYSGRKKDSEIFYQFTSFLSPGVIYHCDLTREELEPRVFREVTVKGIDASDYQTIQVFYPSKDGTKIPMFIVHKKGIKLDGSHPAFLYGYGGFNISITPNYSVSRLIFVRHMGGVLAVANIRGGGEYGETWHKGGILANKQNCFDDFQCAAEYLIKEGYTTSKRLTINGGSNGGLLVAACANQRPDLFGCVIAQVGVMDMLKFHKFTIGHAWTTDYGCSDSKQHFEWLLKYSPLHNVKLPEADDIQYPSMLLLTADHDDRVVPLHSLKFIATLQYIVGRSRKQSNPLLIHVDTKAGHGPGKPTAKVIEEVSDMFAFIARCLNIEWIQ
Assay: Inhibitory activity against rat brain Prolyl endopeptidase (PEP)

SMILES | IC50
CCCCCCCCC(=O)N1CSC[C@H]1C(=O)N1CCCC1 | 38 nM
CCCCC/C=C(\C)C(=O)N1CCC[C@H]1C(=O)N1CCCC1 | 73 nM
CCCCC/C=C/C(=O)N1CCC[C@H]1C(=O)N1CCCC1 | 34 nM
CCCCCCC(=O)N1CSC[C@H]1C(=O)N1CCCC1 | 17 nM
CCCCC(=O)N1CSC[C@H]1C(=O)N1CCCC1 | 37 nM
CCCCCCCC(=O)N1CSC[C@H]1C(=O)N1CCCC1 | 11 nM
CCC/C=C/C=C(\C)C(=O)N1CCC[C@H]1C(=O)N1CCCC1 | 207 nM
CCCCCCCCC=CCCCCCCCC(=O)N1CSC[C@H]1C(=O)N1CCCC1 | 104 nM
CCCCCCCCCC(=O)N1CSC[C@H]1C(=O)N1CCCC1 | 38 nM
CCCCCCCCCCCCCC(=O)N1CSC[C@H]1C(=O)N1CCCC1 | 80 nM
CCCCCCCCCCCC(=O)N1CSC[C@H]1C(=O)N1CCCC1 | 46 nM
CCCC(=O)N1CSC[C@H]1C(=O)N1CCCC1 | 167 nM
CCCCCCCCCCCCCCCCCCCC(=O)N1CSC[C@H]1C(=O)N1CCCC1 | 1160 nM
CCCCCC(=O)N1CSC[C@H]1C(=O)N1CCCC1 | 37 nM
CCCCCCCCCCC(=O)N1CSC[C@H]1C(=O)N1CCCC1 | 42 nM
CCCCCCCCCCCCCCCCCC(=O)N1CSC[C@H]1C(=O)N1CCCC1 | 904 nM
CCCCCCCCCCCCCCCC(=O)N1CSC[C@H]1C(=O)N1CCCC1 | 216 nM
